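Here, GI50 denotes the concentration required for 50% inhibition of growth. The concentration for full growth arrest is given as TGI.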
Legend:
Assay in all cases: NCI anticancer screen, dose series, 384-well format
[1] = test system: NCI-H322M lung
[2] = test system: PC-3 prostate
[3] = test system: SR leukemia
[4] = test system: HOP-62 NSCLC
[5] = test system: NCI-H23 lung
[6] = test system: BT-549 breast
[7] = test system: EKVX NSCLC
[8] = test system: K-562 leukemia
[9] = test system: UACC-62 melanoma
[10] = test system: NCI-H460 NSCLC
[11] = test system: MOLT-4 leukemia
[12] = test system: HOP-92 NSCLC
[13] = test system: OVCAR-4 ovarian
[14] = test system: HT29 colon
[15] = test system: T-47D breast
[16] = test system: HCT-15 colon
[17] = test system: OVCAR-3 ovarian
[18] = test system: SNB-75 CNS
[19] = test system: NCI-H226 lung
[20] = test system: MDA-MB-231 breast
[21] = test system: MCF7 breast
[22] = test system: DU-145 prostate
[23] = test system: A498 renal
[24] = test system: MDA-MB-468 breast
[25] = test system: UACC-257 melanoma
[26] = test system: COLO 205 colon
[27] = test system: OVCAR-8 ovarian
[28] = test system: SF-295 CNS

`O=C(Nc1ccc2[nH]nc(-c3ccncc3)c2c1)[C@@H]1CCN(CC(=O)N2CCN(c3ccc(-c4ncccn4)cc3)CC2)C1` gave a TGI [1] of 31.6 µM, a GI50 [2] of 5.37 µM and a TGI [2] of 20.5 µM. For the same molecule, the GI50 [3] was 2.68 µM, the TGI [3] was 12 µM and the GI50 [4] was 0.661 µM. For the same molecule, the TGI [4] was 17.4 µM, the GI50 [5] was 0.0571 µM and the TGI [5] was 0.678 µM. The GI50 [6] was 2.71 µM, the TGI [6] was 16.6 µM and the GI50 [7] was 2.28 µM. For the same molecule, the TGI [7] was 83 µM, the GI50 [8] was 0.273 µM and the TGI [8] was 12.8 µM. The GI50 [9] was 0.0166 µM, the TGI [9] was 0.385 µM and the GI50 [10] was 0.379 µM. The TGI [10] was 17.6 µM, the GI50 [11] was 1.42 µM and the TGI [11] was 3 µM. It also gave a GI50 [12] of 0.417 µM, a TGI [12] of 2.18 µM and a GI50 [13] of 48.4 µM. For the same molecule, the TGI [13] was greater than 100 µM, the GI50 [14] was 0.069 µM and the TGI [14] was 14.2 µM. It also gave a GI50 [15] of 2.96 µM, a TGI [15] of 9.04 µM and a GI50 [16] of 5.45 µM. It also gave a TGI [16] of 29.1 µM, a GI50 [17] of 19.8 µM and a TGI [17] greater than 100 µM. For the same molecule, the GI50 [18] was 11.6 µM, the TGI [18] was 25.4 µM and the GI50 [19] was 0.735 µM. For the same molecule, the TGI [19] was 14.6 µM, the GI50 [20] was 0.315 µM and the TGI [20] was 32.9 µM. For the same molecule, the GI50 [21] was 11.6 µM, the TGI [21] was 26.9 µM and the GI50 [22] was 4.59 µM. It also gave a TGI [22] greater than 100 µM, a GI50 [23] of 1.78 µM and a TGI [23] of 10 µM. The GI50 [24] was 3.55 µM, the TGI [24] was 33.8 µM and the GI50 [25] was 0.0268 µM. The TGI [25] was 0.271 µM, the GI50 [26] was 0.0281 µM and the TGI [26] was 0.43 µM. The GI50 [27] was 2.83 µM, the TGI [27] was 15 µM and the GI50 [28] was 13.1 µM. For the same molecule, the TGI [28] was 37.8 µM.

Reference: PubChem BioAssay (NCI)
